Assay [1] relates to Mycobacterium tuberculosis H37Ra (ATCC 25177). As to the kind of experiment: In vitro anti-tubercular activity by XTT Reduction Menadione assay (XRMA). Format: cell-based. Conditions: 192 h, read-out: Mycobacterium tuberculosis H37Ra (ATCC 25177) IC50. As for the experimental part:
All the synthesized compounds 6a–j were screened for their in vitro anti-tubercular activity against MTB H37Ra (ATCC 25177). Rifampicin was used as a positive control.
In Vitro Anti-Tubercular Activity by the XTT Reduction Menadione Assay (XRMA) Method
Mycobacterium tuberculosis H37Ra (ATCC 25177) strains were obtained from AstraZeneca, India. The stock culture was maintained at −80 °C and subcultured once in a liquid M. pheli medium which contained 0.5 g KH2PO4, 0.25 g trisodium citrate, 60 mg MgSO4, 0.5 gm asparagine, and 2 mL glycerol in distilled water (100 mL) followed by pH adjustment to 6.6. Bacilli stock cultures were grown in M. pheli medium at 37 °C with continuous agitation at 150 RPM;, it takes at least 8–10 days for OD 1 at 620 nm. Stock solutions (10 mg/mL) of all the synthesized compounds were prepared in DMSO and were evaluated for in vitro anti-tubercular activity against Mycobacterium tuberculosis H37Ra (ATCC 25177) in a liquid medium using an established XTT Reduction Menadione assay (XRMA) method. Briefly, the 96 wells plate received 248.5 μL of M. Pheli medium consisting of bacilli and 2.5 μL of test solutions in serial dilution (12.5, 6.25, 3.125, 1.5625, 0.78 μg/mL). The plates were sealed with a 96-well sealing sheet and incubated at 37 °C for 8 days. Post incubation, XRMA was carried out to estimate viable cells present in different wells of the assay plate. The absorbance was read on a micro plate reader (Spectramax plus384 plate reader, Molecular Devices Inc., San Jose, CA, USA) at 470 nm filter against a blank prepared from cell-free wells. Absorbance given by cells treated with the vehicle alone was taken as 100% cell growth. MIC and IC50 values of compounds were calculated by using Origin 6 software. Percent inhibition was calculated by using following formula:% Inhibition = [(absorbance of Control − absorbance of Test)/(absorbance of Control − absorbance of Blank)] × 100(1) where control is the medium with bacilli along with vehicle and blank is cell-free medium. The drug in clinical use, rifampicin was used as a reference.

The test system of assay [2] is human cervical cancer cell line HeLa. The assay can be described thus: In vitro cytotoxicity by MTT assay. Format: cell-based. Conditions: 48 h, concentration range 100–0.1 μg/mL, read-out: Hela Cells IC50. How it is done:
To lowers the failure of potential therapeutics at later stages of clinical trials toxicity analysis of synthesized compounds at the early stage of research work plays a very important role. To examine the safety of the synthesized compounds, 6a–j were evaluated for their toxicity against human cervical cancer cell line HeLa using the concentration range between 100–0.1 μg/mL.
All the synthesized compounds were tested for their cytotoxicity by a modified MTT assay as described previously. Briefly, cells were seeded at the density of 1 × 10^5 cells/mL in a 96-well plate. The plates were incubated overnight in CO2 incubator (37 °C under 5% CO2 and 95% air in a humidified atmosphere). Next day, cells were treated with synthesized compounds at 10-fold dilution (100–0.1 µg/mL) and incubated for an additional 48 h. Paclitaxel was used as positive control. Post incubation, cell medium was replaced with MTT (0.5 mg/mL)-PBS medium and incubated for 2–4 h to form the reduced MTT or Formazan crystals. This reduced MTT or Formazan crystals were solubilized by addition of 100 µL of SDS-DMF (20% SDS in 50% DMF). The optical density was read on a microplate reader (Spectramax plus 384 plate reader, Molecular Devices Inc.) at 570 nm filter against a blank prepared from cell-free wells. Absorbance given by cells treated with the vehicle alone was taken as 100% cell growth. IC50 and MIC values were calculated from graphs, using Origin Pro software. Where DMSO treated culture cells is control and culture medium without cells is blank. The percent cytotoxicity in the presence of test fractions was calculated by the following formula:Percent cytotoxicity = [(average absorbance of control − absorbance of a compound)/(absorbance of control − absorbance of blank)] × 100(2)

The mark [3] stands for this setting: XRMA, 8 days incubation at 37 °C, liquid M. pheli medium.

In brackets after ≈: the same amount, converted by molar mass. Read-outs that look alike come from different tables or passages of the source. Bounds are passed on as bounds.

The term IC50 denotes the concentration that inhibits the measured activity by half. `O=C(NN1C(=O)C(Cl)C1c1ccc(O)cc1)c1ccc(OCc2ccccc2)cc1` (stereo not shown) [Derivative 6a, 4-(Benzyloxy)-N-(3-chloro-2-(4-hydroxyphenyl)-4-oxoazetidin-1-yl) benzamide]: the IC50 in assay [1] (setting [3]) worked out at 0.652 mg/L (≈ 1.54 µM); in assay [2] it was 82.6 mg/L (≈ 195 µM).

Regarding `COc1ccc(C2C(Cl)C(=O)N2NC(=O)c2ccc(OCc3ccccc3)cc2)cc1` (stereo not shown) [Derivative 6b, 4-(Benzyloxy)-N-(3-chloro-2-(4-methoxyphenyl)-4-oxoazetidin-1-yl) benzamide], the values for the IC50 in assay [1] (setting [3]) and in assay [2] were 0.918 mg/L (≈ 2.1 µM) and 54.9 mg/L (≈ 126 µM), respectively.

Regarding `O=C(NN1C(=O)C(Cl)C1c1ccc(F)cc1)c1ccc(OCc2ccccc2)cc1` (stereo not shown) [Derivative 6c, 4-(Benzyloxy)-N-(3-chloro-2-(4-fluorophenyl)-4-oxoazetidin-1-yl) benzamide], the values for the IC50 in assay [1] (setting [3]) and in assay [2] were 0.85 mg/L (≈ 2 µM) and 31.6 mg/L (≈ 74.4 µM), respectively.

With `O=C(NN1C(=O)C(Cl)C1c1ccc(Cl)cc1)c1ccc(OCc2ccccc2)cc1` (stereo not shown) [Derivative 6d, 4-(Benzyloxy)-N-(3-chloro-2-(4-chlorophenyl)-4-oxoazetidin-1-yl) benzamide], the concentration for half-maximal inhibition (IC50) in assay [1] (setting [3]) was found to be 1.34 mg/L (≈ 3.04 µM); in assay [2], 70.4 mg/L (≈ 159 µM).

As for `O=C(NN1C(=O)C(Cl)C1c1cccc([N+](=O)[O-])c1)c1ccc(OCc2ccccc2)cc1` (stereo not shown) [Derivative 6e, 4-(Benzyloxy)-N-(3-chloro-2-(3-nitrophenyl)-4-oxoazetidin-1-yl) benzamide], the IC50 was 0.654 mg/L (≈ 1.45 µM) in assay [1] (setting [3]) and greater than 100 mg/L in assay [2].

Regarding `COc1ccc(C2C(Cl)C(=O)N2NC(=O)c2ccc(OCc3ccccc3)cc2)cc1OC` (stereo not shown) [Derivative 6f, 4-(Benzyloxy)-N-(3-chloro-2-(3,4-dimethoxyphenyl)-4-oxoazetidin-1-yl) benzamide], the 50% inhibitory concentration (IC50) is 1.72 mg/L (≈ 3.67 µM) in assay [1] (setting [3]) and 44.1 mg/L (≈ 94.4 µM) in assay [2].

For the molecule `COc1cc(C2C(Cl)C(=O)N2NC(=O)c2ccc(OCc3ccccc3)cc2)ccc1O` (stereo not shown) [Derivative 6g, 4-(Benzyloxy)-N-(3-chloro-2-(4-hydroxy-3-methoxyphenyl)-4-oxoazetidin-1-yl) benzamide], the half-maximal inhibitory concentration (IC50) was 0.718 mg/L (≈ 1.59 µM) in assay [1] (setting [3]) and greater than 100 mg/L in assay [2].

Take `CCOc1cc(C2C(Cl)C(=O)N2NC(=O)c2ccc(OCc3ccccc3)cc2)ccc1O` (stereo not shown) [Derivative 6h, 4-(Benzyloxy)-N-(3-chloro-2-(3-ethoxy-4-hydroxyphenyl)-4-oxoazetidin-1-yl) benzamide]: the results for the half-maximal inhibitory concentration (IC50) in assay [1] (setting [3]) and in assay [2] were 0.85 mg/L (≈ 1.82 µM) and greater than 100 mg/L, respectively.

For `O=C(NN1C(=O)C(Cl)C1c1ccc(OCc2ccccc2)cc1)c1ccc(OCc2ccccc2)cc1` (stereo not shown) [Derivative 6i, 4-(Benzyloxy)-N-(2-(4-(benzyloxy)phenyl)-3-chloro-4-oxoazetidin-1-yl) benzamide], the 50% inhibitory concentration (IC50) in assay [1] (setting [3]) stood at 1.31 mg/L (≈ 2.55 µM); in assay [2], 89.2 mg/L (≈ 174 µM).

Consider `O=C(NN1C(=O)C(Cl)C1c1cccs1)c1ccc(OCc2ccccc2)cc1` (stereo not shown) [Derivative 6j, 4-(Benzyloxy)-N-(3-chloro-2-oxo-4-(thiophen-2-yl)azetidin-1-yl) benzamide], for which the values for the half-maximal inhibitory concentration (IC50) in assay [1] (setting [3]) and in assay [2] were 0.786 mg/L (≈ 1.9 µM) and 33.2 mg/L (≈ 80.4 µM), respectively.

Consider `CC(=O)O[C@H]1C(=O)[C@@]2(C)[C@H]([C@H](OC(=O)c3ccccc3)[C@]3(O)C[C@H](OC(=O)[C@H](O)[C@@H](NC(=O)c4ccccc4)c4ccccc4)C(C)=C1C3(C)C)[C@]1(OC(C)=O)CO[C@@H]1C[C@@H]2O` [Paclitaxel, reference compound], for which the 50% inhibitory concentration (IC50) in assay [2] turned out to be 0.0056 mg/L (≈ 0.00656 µM).

For the molecule `CO[C@H]1/C=C/O[C@@]2(C)Oc3c(C)c(O)c4c(O)c(c(/C=N/N5CCN(C)CC5)c(O)c4c3C2=O)NC(=O)/C(C)=C\C=C\[C@H](C)[C@H](O)[C@@H](C)[C@@H](O)[C@@H](C)[C@H](OC(C)=O)[C@@H]1C` [Rifampicin, reference compound], the IC50 in assay [1] amounted to 0.004 mg/L (≈ 0.00486 µM).

Source of the values: publication PMC6222352, “Ultrasound Assisted Synthesis of 4-(Benzyloxy)-N-(3-chloro-2-(substitutedphenyl)-4-oxoazetidin-1-yl) Benzamide as Challenging Anti-Tubercular Scaffold” (Molecules : A Journal of Synthetic Chemistry and Natural …, 2018).
